Test results: a melting point compilation (Tetko et al.; mined from patent text by program, amines drawn as free bases though some values may be those of a salt)

`CC(C(O)c1ccc(O[Si](C(C)C)(C(C)C)C(C)C)c(F)c1)N1CCC(O)(c2ccc(F)cc2)CC1` (stereo not given) gave a melting point of 159 to 160 °C.
Compound `CCC(=O)c1c(C)cc(NC(C)(C)C)nc1NC(C)(C)C` has a melting point of 102 to 103 °C.
Work on `COc1ccc(C(=O)C2C(Cl)=CC=CC2(C)Cl)c(OC(=O)Cc2ccccc2)c1OC` (stereo not given) yielded a melting point of 106 °C.
For `CS(=O)(=O)c1ccc(-c2cnn(-c3ccc(F)c(Cl)c3)c(=O)c2-c2ccc(F)cc2)cc1`, the melting point was 155 to 157 °C.
With `CC(=O)NCCCC(C)C1CC=C2C3=C(CCC21C)C1(C)CCC(O)C(C)(C)C1CC3` (stereo not given) the melting point was 219 to 221 °C.
`NC(=O)c1sc2nccc(N3CCCN(c4ccccc4)CC3)c2c1N` showed a melting point of 215 to 218 °C.
With `N#Cc1cc([N+](=O)[O-])ccc1OCC(F)(F)F` the melting point was 94 °C.
`CC(C)(C)C(=O)CC(c1ccc(Cl)cc1)S(=O)(=O)c1ccccc1` (stereo not given) gave a melting point of 145 to 146 °C.
`Cc1ccc(C)n1-c1ccc(C(=O)N(C)C)cc1` showed a melting point of 102 to 104 °C.
`CC(C)c1nc(-c2ccc(-c3cnc4[nH]c(=O)n(CC5CCOCC5)c4n3)cc2)n[nH]1` showed a melting point of 305 to 308 °C.
Work on `BrCCOc1ccsc1` yielded a melting point of 46 °C.
With `CCN(C)c1nsc(N)c1C#N` the melting point was 94 to 95 °C.
Compound `Cc1cccc(C)c1CNc1cc(C2=NCCN2)cc2c1nc(C)n2C` has a melting point of 273 to 274 °C.
`CC(C)CCNC1(c2ccccc2Cl)C(=O)Nc2ccc(Cl)cc21` (stereo not given) showed a melting point of 152 °C.
Compound `COc1cc(C=CC=C2SC(=O)NC2=O)ccc1OCc1coc(-c2ccccc2)n1` has a melting point of 230 to 231 °C.
In the case of `COC(=O)[C@H]1[C@@H]2CC[C@@](NC(=O)OC(C)(C)C)(C(=O)OC)[C@@H]21`, the melting point is reported as 193 to 194 °C.
For `COc1ccc(CCN(CCc2cccc(C(F)(F)F)c2)C(=O)CCCCC(N)=O)cc1OC`, the melting point was 125 to 126 °C.
`O=[N+]([O-])c1cc(-c2ccccc2)ccc1Cl` gave a melting point of 43 to 44 °C.
For `Nc1csc(-c2cc3c(Oc4ccc(Cl)cc4)cncc3s2)n1`, the melting point was 168 to 170 °C.
For `C=Cc1ccc(N2C[C@H](CNC(C)=O)OC2=O)cc1F`, the melting point was 165 to 166 °C.
With `CCOc1ccc(C(=O)O)c(Cl)n1` the melting point was 185 to 188 °C.
`C=C(C)c1csc(SC)c1` gave a melting point of 71 to 73 °C.
`N#CC12CCCC(C1)C1CCC2C1` (stereo not given) showed a melting point of 109 to 110 °C.
For `CC(N)c1nnc(Cc2cccc3ccccc23)[nH]c1=O` (stereo not given), the melting point was 180 °C.
For `CC(Nc1ccc(F)c(F)c1F)C(=O)O` (stereo not given), the melting point was 114 to 119 °C.
Work on `COC(=O)C(Cc1cccc(OCC(=O)O)c1)c1nc(-c2ccccc2)c(-c2ccccc2)o1` (stereo not given) yielded a melting point of 122 to 127 °C.
For `COc1cc2c(Nc3ccc(Sc4nccn4C)c(Cl)c3)c(C#N)cnc2cc1N1CCC(N2CCCC2)CC1`, the melting point was 225 to 229 °C.
For `CSc1nc(P(=O)(c2ccccc2)c2ccccc2)cc(P(=O)(c2ccccc2)c2ccccc2)n1`, the melting point was 221 to 222 °C.
In the case of `O=C(C=C(c1cc(Cl)cc(Cl)c1)C(F)(F)F)c1ccc(C(=O)NC2CCCO2)cc1` (stereo not given), the melting point is reported as 140 to 146 °C.
For `NCc1nc(-c2ccc(-c3cnc4[nH]c(=O)n(CCC5CCOCC5)c4n3)cc2)n[nH]1`, the melting point was 258 to 260 °C.
In the case of `OC1CSC(Oc2cncc(-c3ccc(F)cn3)c2)C(O)C1O` (stereo not given), the melting point is reported as 166 to 190 °C.
`CC=CC(=O)Nc1c(C(O)(C(F)(F)F)C(F)(F)F)ccc2ccccc12` gave a melting point of 216 to 217 °C.
Work on `COC(=O)c1ccc(C=Cc2nc3ccccc3s2)cc1` yielded a melting point of 168 to 169 °C.
`OC1Cc2cccc(Br)c2C1` (stereo not given) gave a melting point of 80 °C.
`CCOC(=O)C(=O)c1cc(F)cc2cccnc12` showed a melting point of 114 to 117 °C.
`CN1CCN(CCCC2CCN(C(=O)N3c4ccccc4C(=O)Nc4cccnc43)CC2)CC1` gave a melting point of 213 to 214 °C.
In the case of `O=c1nccc2sc3cc(-c4ccccc4)ccc3n12`, the melting point is reported as 196 to 197 °C.
For `O=[N+]([O-])c1cccc(SC(CCl)S(=O)(=O)c2cccc([N+](=O)[O-])c2)c1` (stereo not given), the melting point was 98 to 110 °C.
With `Cc1nc(-n2ccc(O)cc2=O)sc1C(=O)NCc1ccncc1` the melting point was 275 to 278 °C.
`O=[N+]([O-])c1ccc2ncccc2c1O` gave a melting point of 245 °C.
`O=Cn1cc(Cl)c(-c2cccc(Cl)c2Cl)c1` gave a melting point of 130 to 131 °C.
`O=C(COCc1ccccc1Cl)Nc1ccccc1` showed a melting point of 130 to 132 °C.
For `O=C(CCCCCCC(=O)N1CCN(CC(=O)Nc2nc3ccccc3s2)CC1)NO`, the melting point was 166 to 170 °C.
For `O=C(Cc1ccccc1Nc1c(Cl)cccc1Cl)OCc1ccccn1`, the melting point was 80 to 81 °C.
In the case of `CCN1CCC(=O)C(C(c2ccccc2)c2ccccc2)C1` (stereo not given), the melting point is reported as 54 to 58 °C.
Work on `COC1(c2csc(Sc3ccc4c(c3)OCC/C4=N\O)c2)CCOCC1` yielded a melting point of 137 to 138 °C.
Work on `CCc1cc2c(cc1Oc1ccc(C(=O)O)cc1C)C(C)(C)CCC2(C)C` yielded a melting point of 210 to 211 °C.
With `Fc1ccccc1NC(=S)Nc1ncccc1OCc1c(F)cccc1Cl` the melting point was 145 to 147 °C.
Work on `COc1cc2c(c(OC)c1OC)-c1ccc(SC)c(=O)cc1C(N)CC2` (stereo not given) yielded a melting point of 168 to 170 °C.
For `CCCN(CCC)CCCCCOc1ccc2oc(-c3cccc(OC)c3)cc(=O)c2c1`, the melting point was 80 to 81 °C.
With `CCc1noc2cc(-c3ccccc3)n(C)c(=O)c12` the melting point was 167 to 169 °C.
For `COc1ccc(-c2c[nH]c3c(OC)ccc(OC)c3c2=O)cc1`, the melting point was 124 to 125 °C.
Compound `COc1ccc(-c2c(Cl)ncn2-c2ccc(S(C)(=O)=O)cc2)c(F)c1` has a melting point of 176 to 198 °C.
In the case of `O=C1C=CC(=Nc2ccccc2C(=O)N2CCCCC2)C=C1`, the melting point is reported as 74 to 76 °C.
Work on `COc1cccc2c1CCC21NC(=O)c2ccccc21` (stereo not given) yielded a melting point of 222 to 224 °C.
In the case of `O=C(c1ccc(Cl)cc1)c1cc2ccccc2cn1`, the melting point is reported as 126 to 127 °C.
Compound `CCCc1cc(=O)oc2cc(OC(=O)CC)cc(O)c12` has a melting point of 166 to 168 °C.
`CCCCc1nc(C(O)C(C)C)c(C#N)n1Cc1ccc(-c2ccccc2-c2nnnn2C(c2ccccc2)(c2ccccc2)c2ccccc2)cc1` (stereo not given) showed a melting point of 127 to 128 °C.
`CCn1c2c(c3ccccc31)SCCC2(C)C=O` (stereo not given) showed a melting point of 88.5 to 90 °C.
Compound `Cc1c(C)c2c(c(C)c1O)CCC(C#N)(C(C)C)O2` (stereo not given) has a melting point of 132 °C.
`Cc1c(C#N)sc2nc(-c3ccc4c(c3)OCO4)nc(N(C)CCO)c12` showed a melting point of 195 to 197 °C.
`COC(=O)C1=C(C)NC(C)=C(S(=O)(=O)c2ccccc2)C1c1ccccc1[N+](=O)[O-]` (stereo not given) showed a melting point of 203 °C.
`CCCCCCCCCCCCCCCCCCOc1ccc(OCCCc2ccccc2)c(C(=O)N(CC(=O)O)CC(=O)O)c1` gave a melting point of 101 to 102 °C.
With `O=S(=O)(Cc1ccccc1)n1c2cc(O)c(O)cc2c2ccc(O)c(O)c21` the melting point was 216 to 218 °C.
For `COCCOc1cc(NC(=O)OC(C)(C)C)c(NC(=O)CC(=O)c2cccc(-n3ccnc3)c2)cc1C#Cc1ccccc1`, the melting point was 122 to 129 °C.
In the case of `O=C1Nc2ccc(-c3cccc(Cl)c3)cc2C12OCCCO2`, the melting point is reported as 242 to 244 °C.
For `Cn1nc(C(F)(F)C(F)(F)F)cc1O`, the melting point was 183 to 188 °C.
`C[C@@H](NC(=O)c1ccc(-c2ccc(Cl)cc2)o1)[C@](O)(Cn1cncn1)c1ccc(F)cc1F` showed a melting point of 218 to 219 °C.
`COC(=O)c1cc2c(cc1OC)OCO2` showed a melting point of 74 to 75 °C.
Work on `CCCN(CCC)C(=O)n1cnc(S(=O)(=O)CCC)n1` yielded a melting point of 79 to 80 °C.
Work on `Nc1cc(NC(=O)c2ccc(F)c(F)c2)ccc1F` yielded a melting point of 135 to 142 °C.
`COc1ccc2c(N(C)CCN3CCOCC3)noc2c1` gave a melting point of 43 to 44 °C.
`CC(C)c1cc(O)cc(C(C)C)c1NC(=O)CN1CCN(CCCSc2nc3ccccc3o2)CC1` showed a melting point of 201 to 203 °C.
`Clc1ccc(SC(Cn2ccnc2)C23CC4CC(CC(C4)C2)C3)cc1Cl` (stereo not given) gave a melting point of 179 to 181 °C.
`Cc1c(COc2ccc(-c3ccc(S(=O)(=O)NC(C(=O)O)C(C)C)cc3)cc2)oc2ccc(Br)c(OC(C)C)c12` (stereo not given) showed a melting point of 137 to 140 °C.
With `CC(C)OCCC(=O)C=P(c1ccccc1)(c1ccccc1)c1ccccc1` the melting point was 66 to 70 °C.
`Cn1c(SCCCN2CCc3ccc(C(=O)c4ccccc4)cc3C2)nnc1-c1ccccc1` showed a melting point of 146 to 152 °C.
With `CCOC(=O)N(C)CC1CN(c2c(F)cc(C(=O)O)c(F)c2F)CCO1` (stereo not given) the melting point was 170 to 172 °C.
Compound `OC(c1cccc(F)c1)C1CCCCN1` (stereo not given) has a melting point of 146 to 148 °C.
`Cc1cccc(-n2nc(C)cc2-c2ccnc(S(C)(=O)=O)c2)c1` showed a melting point of 140 to 142 °C.
`CC(C)(C)OC(=O)N1CCCCN1C(=O)OCc1ccccc1` showed a melting point of 71 to 72 °C.
For `CCOC(=O)C(NC(C)=O)C(=O)CCCCc1ccccc1` (stereo not given), the melting point was 54 to 55 °C.
Compound `CCOC(=O)c1c(-c2cccc(Cl)c2)noc1C` has a melting point of 71 to 73 °C.
With `CC1(C)Oc2ccc(C#N)cc2[C@@H](NC2=CC(=O)CC2)[C@@H]1O` (relative stereo) the melting point was 174 to 176 °C.
For `O=C1NCc2c1cc1ccc3c(c1c2-c1ccc(C(F)(F)F)cc1)OCO3`, the melting point was 315 to 317 °C.
With `CCCC(=O)c1cnc2c(F)cccc2c1Cl` the melting point was 57 to 60 °C.
Work on `Cc1nc(-c2ccc(-c3cnc4[nH]c(=O)n(CCC5CCOCC5)c4n3)cc2)n[nH]1` yielded a melting point of 290 to 292 °C.
With `CN(C)c1ncc(NC(=O)c2cc3cc(C(F)(F)F)cnc3n2Cc2cccc(F)c2)cn1` the melting point was 236 to 238 °C.
Compound `COC(=O)C(C)(C)CCCOc1cc(C)c(NC(=O)C(C)(C)CCCOc2cc(C)ccc2C)cc1C` has a melting point of 60 to 62 °C.
`CS(=O)(=O)Nc1cc(C(c2cc(F)ccc2F)S(=O)(=O)c2ccc(Cl)cc2)c(Cl)cn1` (stereo not given) gave a melting point of 220 to 222 °C.
`CN(C)C(=O)c1c(-c2ccc3ccccc3c2)ccc2ccccc12` gave a melting point of 168 to 169 °C.
`C=C(C)c1ccccc1N1CCN(C(=O)Nc2cc(C)c(C)nc2OC)CC1` showed a melting point of 139 to 140 °C.
For `CC(=O)Nc1cc(F)c([N+](=O)[O-])cc1F`, the melting point was 188 to 189 °C.
Compound `COCCn1ccc2ccc(NC(=O)/C=C/c3ccc(C(C)(C)C)cc3)cc21` has a melting point of 133 °C.
Work on `CC(C)(C)C(=O)Nc1cccc(N)n1` yielded a melting point of 140 to 141 °C.
In the case of `O=C(N[C@H]1CC[C@H](CCN2CCC(c3cccc4c3CCO4)CC2)CC1)c1ccc(-n2cccn2)cc1`, the melting point is reported as 258 °C.
`CS(=O)(=O)N(CCO)c1c(Cl)c(C(F)(F)F)cc2[nH]c(=O)c(=O)[nH]c12` gave a melting point of 292 to 294 °C.
With `COCCOC(=O)Nc1cccc(C)c1CNc1cccn2c(CO)c(C)nc12` the melting point was 138 to 140 °C.
`CCOC(=O)C(C)Oc1ncn(-c2ccccc2)n1` (stereo not given) showed a melting point of 88 to 89 °C.
In the case of `Nc1ccc(S(=O)(=O)c2cc(-c3cc(C(F)(F)F)cc(C(F)(F)F)c3)nc(N3CCCC3)c2)cc1`, the melting point is reported as 184 to 186 °C.
